Test results published in PubChem BioAssay AID1996.
Values after ≈ are worked out from the molar mass of the structure shown.

conditions: buffer; pH 7.4; 200.0 µM

Row | SMILES | solubility kinetic
1 | Cn1c(/C=C/c2cccc([N+](=O)[O-])c2)c([N+](=O)[O-])c(=O)n(C)c1=O | 48.6 µg/mL (≈ 146 µM)
2 | CCOc1ncccc1C(=O)Nc1cccc(S(=O)(=O)N2CCOCC2)c1 | 12 µg/mL (≈ 30.7 µM)
3 | Cc1ccc(CCSc2ccc(F)cc2)cn1.O=C(O)C(=O)O | 25.2 µg/mL
4 | O=[N+]([O-])c1cccnc1NCCc1c[nH]c2ccccc12 | 0.3 µg/mL (≈ 1.06 µM)
5 | CN(C)S(=O)(=O)c1cccc(NC(=O)c2cc(=O)[nH]c(=O)[nH]2)c1 | > 50.8 µg/mL
6 | COc1cc(N)c(Cl)cc1C(=O)OCC(=O)Nc1ccc(N2CCOCC2)cc1 | 4.9 µg/mL (≈ 11.7 µM)
7 | O=C1CCC(C(=O)OCc2nnc(-c3ccccc3)o2)=NN1 | > 45 µg/mL
8 | CCCCC(CC)C1OCC(CN2CCCCC2)O1 (configuration not stated) | 4.3 µg/mL (≈ 16 µM)
9 | N/C(CN1CCSCC1)=N\OCc1c(F)cccc1Cl | 40.4 µg/mL (≈ 127 µM)
10 | O=C(Cc1ccc(Cl)cc1)NCCc1ccc(F)cc1 | 19.4 µg/mL (≈ 66.5 µM)
11 | CCCN1CCC[C@H](c2cccc(O)c2)C1.Cl | > 38.4 µg/mL
12 | NS(=O)(=O)c1ccc(NC(=O)COC(=O)Cn2cnc3ccccc3c2=O)cc1 | 18 µg/mL (≈ 43.2 µM)
13 | COCCNC(=S)NCc1cccs1 | 31.9 µg/mL (≈ 138 µM)
14 | O=C(NC1CCCc2ccccc21)c1ccc(F)cc1F (configuration not stated) | 10.9 µg/mL (≈ 37.9 µM)
15 | CCNC(=S)Nc1cc2oc3ccccc3c2cc1OC | 3.2 µg/mL (≈ 10.7 µM)
16 | Cc1cccc(NC(=O)c2cc(=O)c3ccccc3o2)c1 | 1.9 µg/mL (≈ 6.8 µM)
17 | Cc1c(C(=O)OCC(=O)NCC2CCCO2)oc2ccccc12 (configuration not stated) | > 47.6 µg/mL
18 | CNC(=O)C1CC(=O)N(CCc2ccc(C)cc2)C1 (configuration not stated) | > 39.1 µg/mL
19 | Cc1nnc(SCC(=O)O)s1 | > 28.5 µg/mL
20 | Cc1ccc(CNC(=O)Nc2ccccc2)c(C)c1 | 0.7 µg/mL (≈ 2.75 µM)
21 | CN(C)CCNC(=O)Nc1ccc(F)cc1F | > 36.5 µg/mL
22 | CCOP(=O)(OCC)C(Nc1ccc(F)cc1)c1ccccc1 (configuration not stated) | > 50.6 µg/mL
23 | Cc1cc(C)nc(SCC(=O)Nc2ccnc3ccccc23)n1 | 6.6 µg/mL (≈ 20.3 µM)
24 | C=CCc1ccccc1Oc1cc(F)nc(N)n1 | 27.7 µg/mL (≈ 113 µM)
25 | O=C(N/N=C/C1CCCCC1)c1ccccc1-n1cccc1 | > 44.3 µg/mL

Row | SMILES | solubility kinetic
26 | Cc1ccc(CN2CCc3[nH]c(=S)[nH]c(=O)c3C2)cc1 | 10.5 µg/mL (≈ 36.5 µM)
27 | O=C(CN1CCN(Cc2ccc3c(c2)OCO3)CC1)Nc1ccc2[nH]c(=O)[nH]c2c1 | > 61.4 µg/mL
28 | CN(C)CCCNc1nc(-c2ccccc2)c2c(c1C#N)CC(C)(C)OC2 | 47.3 µg/mL (≈ 130 µM)
29 | O=C(COC(=O)CNC(=O)c1cccc(OC(F)F)c1)NCc1ccc2c(c1)OCO2 | 22 µg/mL (≈ 50.4 µM)
30 | Cc1ccc(CSC2=NCCN2C(=O)C(C)Oc2ccccc2)cc1 (configuration not stated) | 4.4 µg/mL (≈ 12.4 µM)
31 | N#Cc1ccc(OCc2ccc(C(=O)O)o2)cc1 | > 36.5 µg/mL
32 | CCc1nnc(NC(=O)CN2CC(C)OC(C)C2)s1 (configuration not stated) | > 42.7 µg/mL
33 | COc1ccc(NC(=O)c2cc(-c3ccccc3)on2)cc1 | < 0.3 µg/mL
34 | CCc1nc2sc3ccccc3c(=O)c2c(=O)n1Cc1ccc(OC)cc1 | 0.8 µg/mL (≈ 2.11 µM)
35 | O=C(Nc1nc(-c2ccc(F)c(F)c2)cs1)c1cnccn1 | 0.8 µg/mL (≈ 2.51 µM)
36 | NC(=[NH2+])SCc1[nH+]cccc1O.[Cl-] | 35.3 µg/mL
37 | N#CC(C#N)=CNc1cccnc1 | > 25.5 µg/mL
38 | Cc1cccnc1Oc1ncccc1N | > 30.2 µg/mL
39 | COc1ccc(NC(=O)Nc2cc(C(C)(C)C)on2)cc1OC | > 47.9 µg/mL
40 | CCc1ccc(C(=O)NC(C(=O)NCC2CCCO2)C(C)C)cc1 (configuration not stated) | > 49.9 µg/mL
41 | COC(=O)CC(N)c1ccc(Br)cc1.Cl (configuration not stated) | > 44.2 µg/mL
42 | O=C(Cc1c(Cl)cccc1Cl)Nc1ccncc1 | > 42.2 µg/mL
43 | O/N=C/c1ccc2ccccc2n1 | > 25.8 µg/mL
44 | NC(=O)CN1C(=O)C(=O)N(Cc2ccc(Cl)cc2)C1=O | > 44.4 µg/mL
45 | COc1ccc(NC(=O)c2cc3cc(C)ccc3n2C)c(OC)c1 | 2.7 µg/mL (≈ 8.32 µM)
46 | Nc1ccccc1C(=O)NCc1ccco1 | > 32.4 µg/mL
47 | COc1ccc(CNC(=O)c2ccncc2)cc1 | > 36.3 µg/mL
48 | O=C(Nc1ccc(C(=O)O)cc1)Nc1ccc([N+](=O)[O-])cc1 | > 45.2 µg/mL
49 | Cc1cccc(NC(=O)c2c(-c3ccccc3)noc2C)n1 | 34.9 µg/mL (≈ 119 µM)
50 | Cc1cc(OCC(=O)N2CCOCC2)ccc1[N+](=O)[O-] | > 42 µg/mL

Row | SMILES | solubility kinetic
51 | O=c1[nH]c(SCc2cccc(F)c2)nc2ccccc12 | < 0.3 µg/mL
52 | COc1cc(C(=O)NC(=S)N2CCCCCC2)cc(OC)c1OC | 15.8 µg/mL (≈ 44.8 µM)
53 | Cc1cc(-n2c(C)cc(C(=O)CN3C(=O)C(=O)N(C)C3=O)c2C)no1 | > 51.6 µg/mL
54 | Cc1ccc(CCC(=O)Nc2ccc(C#N)cc2)o1 | 37 µg/mL (≈ 146 µM)
55 | COc1ccc(C(=O)Nc2cc(C)on2)cc1OC | 26.9 µg/mL (≈ 103 µM)
56 | COCCNC(=O)/C(C#N)=C/c1ccc(C(=O)O)cc1 | > 41.1 µg/mL
57 | O=C(NCCc1ccco1)c1ccc(OCc2cn3ccccc3n2)cc1 | > 54.2 µg/mL
58 | O=[N+]([O-])c1ccc(C2=CSC3=NCCN23)cc1 | 31.2 µg/mL (≈ 126 µM)
59 | COc1ccc(N2CCN(C(=O)Cc3ccc(C)cc3)CC2)cc1 | 43.9 µg/mL (≈ 135 µM)
60 | COc1ccc(C(C)=O)cc1CC(=O)Nc1ccc2c(c1)CCC2 | 7.9 µg/mL (≈ 24.4 µM)
61 | CCOC(=O)c1cc(C#N)c(SCC(N)=O)[nH]c1=O | > 42.2 µg/mL
62 | Cc1ccc(S(=O)(=O)Nc2ccccc2C(=O)N2CCOCC2)cc1 | > 54.1 µg/mL
63 | C(=N\N1CCN(c2ccccn2)CC1)/c1ccccn1 | > 40.1 µg/mL
64 | Cc1cccc(NC(=O)CCCCC(=O)Nc2cccc(C)c2)c1 | < 0.3 µg/mL
65 | N#Cc1cc2cc3ccccc3nc2n2c(=O)c3ccccc3nc12 | < 0.2 µg/mL
66 | Cc1cc(C)cc(NC(=S)NC(=O)Cc2ccccc2)c1 | 0.5 µg/mL (≈ 1.68 µM)
67 | CCOc1ccc(C(=O)N2CCc3ccccc32)cc1OCC | 40.5 µg/mL (≈ 130 µM)
68 | COc1ccc(NC(=O)c2cc(C)no2)cc1OC | > 39.3 µg/mL
69 | COc1ccccc1NC(=O)c1cc2c(cc1Cl)N1CCCCCC1=NS2(=O)=O | 2.1 µg/mL (≈ 4.84 µM)
70 | O=C(c1ccc(F)cc1)C(Cc1ccccc1)N1CCCCC1 (configuration not stated) | 13.1 µg/mL (≈ 42.1 µM)
71 | O=C(NC(=S)Nc1cccc2c(O)cccc12)c1ccco1 | 9.3 µg/mL (≈ 29.8 µM)
72 | CN1CCN(c2ccc(F)cc2N)CC1 | > 31.4 µg/mL
73 | N#CCCC(CCC#N)C1=NCCc2ccccc21 | 36.4 µg/mL (≈ 145 µM)
74 | Cc1cc(C)c(C#N)c(N2CCN(c3ccc(F)cc3)CC2)n1 | < 0.2 µg/mL
75 | N#Cc1cc(Sc2ccccn2)c([N+](=O)[O-])cc1C#N | > 42.3 µg/mL

Row | SMILES | solubility kinetic
76 | Cc1ccc(CCC(=O)Nc2ccc(CC(=O)O)cc2)o1 | > 43.1 µg/mL
77 | N#Cc1ccc2c(c1)NC(=O)C1CCCN21 (configuration not stated) | 27.8 µg/mL (≈ 130 µM)
78 | COc1ccccc1CNCc1ccc(OC)c2ccccc12 | 33.7 µg/mL (≈ 110 µM)
79 | O=C(COc1ccccc1)Nc1ccc(F)cc1 | > 36.8 µg/mL
80 | Cc1ccc(-c2csc3nc[nH]c(=O)c23)c(C)c1 | 2.4 µg/mL (≈ 9.36 µM)
81 | Cc1ccc(CNS(=O)(=O)c2ccccc2[N+](=O)[O-])cc1 | 38.7 µg/mL (≈ 126 µM)
82 | O=C(NCCCl)c1ccc(OCc2ccccc2)cc1Cl | 37 µg/mL (≈ 114 µM)
83 | Cc1nc(-c2ccc(S(=O)(=O)N3CCOCC3)cc2)cs1 | 20.7 µg/mL (≈ 63.8 µM)
84 | COc1cccc(OC)c1C(=O)OCC(=O)NCc1ccco1 | > 47.9 µg/mL
85 | COc1cccc2[nH]c(=O)c(-c3ccccc3)cc12 | 1.4 µg/mL (≈ 5.57 µM)
86 | CC1CCCCC12NC(=O)N(CC(=O)NCc1ccco1)C2=O (configuration not stated) | > 47.9 µg/mL
87 | Cc1c[nH]c2ccccc12 | 6.8 µg/mL (≈ 51.8 µM)
88 | O=[N+]([O-])c1cccnc1Oc1ccc(F)cc1F | 28.3 µg/mL (≈ 112 µM)
89 | O=C(COC(=O)Cc1ccc(Cl)cc1)NCc1ccco1 | > 46.2 µg/mL
90 | COc1ccc(CNC(=O)CN(C)CC(=O)Nc2ccccc2Br)cc1 | > 63 µg/mL
91 | CCCNC(=O)Nc1nc2ccccc2s1 | 34 µg/mL (≈ 144 µM)
92 | Br.COc1ccc(C2=CSC3=NCCN23)cc1 | > 47 µg/mL
93 | O=C(NCc1cccs1)C1CC(=O)N(c2ccc(Cl)cc2)C1 (configuration not stated) | 11.9 µg/mL (≈ 35.5 µM)
94 | COc1ccc(C(=O)OCC(=O)NC(=O)NC2CCCC2)cc1[N+](=O)[O-] | 6.4 µg/mL (≈ 17.5 µM)
95 | COc1ccc(F)cc1S(=O)(=O)NCCN1CCOCC1 | > 47.8 µg/mL
96 | COc1ccc(CCN=Cc2ccccc2O)cc1OC | > 42.8 µg/mL
97 | Cc1ccc(S(=O)(=O)N2CCOCC2)cc1C(=O)OCC(=O)NCCc1ccccc1 | > 67 µg/mL
98 | O=C(O)CCc1ccc(-c2cccs2)n1CCc1ccccc1 | > 48.8 µg/mL
99 | COc1ccccc1C(=O)NS(=O)(=O)c1ccc(C)cc1 | > 45.8 µg/mL
100 | O=C(Nc1cc(Cl)cc(Cl)c1)c1cccnc1 | 17.6 µg/mL (≈ 65.9 µM)

Row | SMILES | solubility kinetic
101 | O=C(Cc1ccccc1)NCC1OCCc2ccccc21 (configuration not stated) | 30.9 µg/mL (≈ 110 µM)
102 | CC(=O)c1ccc(NC(=O)N2CCc3ccccc3C2)cc1 | 34.3 µg/mL (≈ 117 µM)
103 | CCc1ccccc1NC(=O)CNC(=O)c1ccc(OCc2cn3ccccc3n2)cc1 | 7.6 µg/mL (≈ 17.7 µM)
104 | [Cl-].c1ccc(Cn2c[n+](Cc3ccccc3)cn2)cc1 | > 42.9 µg/mL
105 | O=C(Cc1ccccc1[N+](=O)[O-])Nc1ccccc1C(=O)N1CCOCC1 | > 55.4 µg/mL
106 | Cc1nc2ccc([N+](=O)[O-])cc2c(=O)n1Cc1ccccc1Br | 2 µg/mL (≈ 5.34 µM)
107 | N#Cc1ccc(NC(=O)c2cccs2)nc1 | > 34.4 µg/mL
108 | Cn1c(O)c(C=NCCN2CCOCC2)c(=O)[nH]c1=S | > 44.8 µg/mL
109 | C#CCn1cc(/C=C2\NC(=O)NC2=O)c2ccccc21 | 1.2 µg/mL (≈ 4.52 µM)
110 | CCOc1ccc(Nc2nc(-c3cccnc3)cs2)cc1 | < 0.2 µg/mL
111 | CCCOC(=O)Nc1cc(OC)ccc1[N+](=O)[O-] | 5.7 µg/mL (≈ 22.4 µM)
112 | Cn1cnc(S(=O)(=O)NC2CCN(Cc3c(F)cccc3Cl)CC2)c1 | > 58 µg/mL
113 | Cc1[nH]nc(SCC(=O)Nc2cccc(O)c2)c1[N+](=O)[O-] | > 46.2 µg/mL
114 | Cc1ccccc1C(=O)Nc1ccc(S(=O)(=O)Nc2onc(C)c2C)cc1 | 50.5 µg/mL (≈ 131 µM)
115 | O=C(CN1c2cccc3cccc(c23)S1(=O)=O)Nc1ccc(F)c(F)c1F | 2.9 µg/mL (≈ 7.39 µM)
116 | Oc1ccc(-c2cnc3ccccc3n2)cc1 | 26.9 µg/mL (≈ 121 µM)
117 | O=C(CCSCc1ccc(Cl)cc1)NCc1cccnc1 | 48 µg/mL (≈ 150 µM)
118 | CN1C(=O)C(C)(C)N(C(=O)c2cccc([N+](=O)[O-])c2)c2ccccc21 | 29.5 µg/mL (≈ 86.9 µM)
119 | Cc1ccc(C)c(NC(=S)N2CCCC2)c1 | > 35.2 µg/mL
120 | CC1CCN(S(=O)(=O)c2ccc(Cl)s2)CC1 | 15.3 µg/mL (≈ 54.7 µM)
121 | O=C(CCCc1ccccc1)Nc1nccs1 | 28.5 µg/mL (≈ 116 µM)
122 | COc1ccc(NC(=O)c2cc(F)c(F)cc2Cl)cc1Cl | < 0.7 µg/mL
